In paper PMC9763021, “Comprehensive Assessment of Biomolecular Interactions of Morpholine-Based Mixed Ligand Cu(II) and Zn(II) Complexes of 2,2′-Bipyridine as Potential Anticancer and SARS-CoV-2 Agents: A Synergistic Experimental and Structure-Based Virtual Screening” (Bioinorganic Chemistry and Applications, 2022):

Tests used:
[1] = system: CT-DNA; test: DNA thermal denaturation (biothermodynamic properties); format: binding, calf thymus; settings: for Tm (K) / Tm °C of DNA-compound adduct: 260 nm, [DNA]/[Complex] = 1; for Tm °C of DNA-compound adduct: CT-DNA alone 68°C; for ΔH°: Van't Hoff equation; for ΔTm °C: versus free DNA (68°C); for ΔG°: −R.Tm.lnKm
Description: Thermal denaturation characteristics were executed by a UV-visible spectrophotometer in a temperature-controlled sample container in both the presence and absence of the substances. In a Tris-HCl buffer solution with a pH of 7.4, all substances were incubated with CT-DNA in a 1 : 1 ratio. Temperature increases of two degrees Celsius per minute were applied to test substances in the range of 25 to 100°C, and the changes in absorbance at 260 nm were carefully scrutinized.
DNA denaturation contributes to the root cause of several chronic diseases, hereditary disorders, and a reduction in the ability of DNA repair to work properly. The biothermodynamic properties were further supported to determine the ability of stabilization of the double-standard DNA, and it offers details on the structural alterations, the degree of the DNA-compound system, the external binding-mediated neutralization of phosphate charges on DNA, and the stacking interactions, all of which work together to raise the DNA's melting point. […] The Van't Hoff (9) and Gibbs Helmholtz equations (10) were supportive in evaluating the biothermodynamic parameters, which are enclosed in Table 2. […] The influencing factors between test compounds and DNA mostly depend on the type of interaction mode. Because of the driving forces, H-bonds, weak Van der Waals forces, and electrostatic modes of binding all occur while the enthalpy is favourable. Hydrophobic forces induce binding while entropy is favourable; on the other hand, the loss of structural degrees of freedom leads to undesirable entropic changes. As per Ross and colleagues, the findings for ΔH° and ΔS° can alternatively be derived in the following favourable sequence. If ΔH° > 0 and ΔS° > 0, this attributes intercalation due to hydrophobic forces of attraction. If ∆H° < 0 and ΔS° < 0, this involves weak Van der Waals forces of attraction and H-bonding interactions. On the other hand, if ΔH° < 0 (or), ΔH°≈0 and ∆S° > 0, this indicates the electrostatic mode of binding possible between DNA and compounds [28, 68]. […] Furthermore, it is widely acknowledged that the hydration and generation of the compound-deoxyribonucleic acid adduct system via the counter ion liberating mechanism are highly dependent on the hydrophobic forces of attraction.

[2] = Hydroxyl radical scavenging assay; format: biochemical; settings: for % Inhibition hydroxyl radical: 230 nm
Description: (§1) All samples were evaluated for their scavenging ability with the help of UV-visible spectrophotometer at different concentrations of 40, 80, 120, 160, 200, and 240 μM [6, 28]. While performing the antioxidant properties for the DPPH, hydroxyl, superoxide, and nitric oxide radical scavenging, the absorbance at 517, 230, 590, and 546 nm, respectively, was closely observed. In addition, the observed IC50 values of all samples were compared with ascorbic acid.
Hydrogen peroxide receives electrons from antioxidant molecules and then neutralizes them into a water molecule. ^●OH inhibition capability was determined from the % of inhibition for all test substances at 230 nm.

[3] = Nitric oxide scavenging assay; format: biochemical; settings: for % Inhibition nitric oxide: 546 nm
Description: as §1
The diffusible nitric oxide free radical is a crucial chemical mediator, which assists in overcoming diverse chronological human diseases. The NO free radical scavenging potential for all test samples was also carried out at 546 nm. It monitored the alterations in electronic absorption intensity of the nitric oxide radical inhibition outcome concerning the sample concentrations. When the test sample concentration rises, the nitric oxide free inhibition effectiveness also increases. The measured % of nitric oxide radical scavenging capability for all samples at 240 μM was obtained in the subsequent order (ascorbic acid) 72.73 > (1a) 65.47 > (2a) 58.43 > (HL) 51.62.

[4] = system: Escherichia coli; test: Agar disc diffusion, strain A; format: cell-based; parameters: (inhibition %): concentration or dose not given beside the values; settings: for (inhibition %): (T–C)/T×100; for diameter of the clear zone inhibition: control (DMSO) = 6 mm
Description: (§2) In-vitro antimicrobial properties were evaluated for all samples by the agar disc diffusion method towards different fungal and bacterial strains. Additionally, the reported inhibition zone values were comparatively analyzed with the standard antifungal drugs ketoconazole and amphotericin B as well as the standard antibiotic medications streptomycin and amikacin.
(§3) The current research has a curious focus on the in vitro antimicrobial properties of biological systems because these studies are crucial for developing effective antibacterial and antifungal medications. […] It can also be spelled out based on the chelation theory proposed by Overtone and Tweedy. Chelation theory points out that the partial exchanging of the positive charge of the metal center with donor moieties, and overlap of the ligand orbitals will reduce the greater degree of the metal ion's polarity, which ultimately rises the delocalization of π and d electrons over the full chelated ring system. By raising the size of the metal ion due to the retarding of polarization, chelation may also enhance the complexes' lipophilic characteristics, which further stimulate the lipid membrane permeability and break down the bacteria' enzymes responsible for cell wall formation, therefore slowing down the regular cell processes. By preventing the production of cell walls/proteins/DNA, including by obstructing folate metabolism and the cytoplasmic membrane, antimicrobial drugs frequently either fully eliminate microbes or only prevent their cell growth. Additionally, the samples' mode of action may be employed in disrupting the cell's respiration process by forming an H-bond during the morpholine-fused iminic group coordinated with the active metal center of its components, inhibiting proliferation of the cell. […] The difference in the antimicrobial efficacy of some of the compounds towards various microorganisms influences on the impermeability of the cells of the germs or the diversity of ribosomes of the microbes. The % of the inhibition of all substances is estimated from (45) (Table 9).
(§4) (A, B, C, D, and E are represented as gram negative bacteria species Escherichia coli, Salmonella enteric serovar typhi, Salmonella enteric serovar typhi, Pseudomonas aeruginosa, and Shigella flexneri, respectively. F & G are denoted as gram positive bacteria species Staphylococcus aureus and Bacillus cereus. H, I, and J are represented as fungal strains Aspergillus niger, Candida albicans, and Mucor indicus. Standard drugs for bacterial strains: Amikacin & Streptomycin Standard drugs for fungal strains: Ketoconazole and Amphotericin B. [Control (DMSO) = 6 mm].(44) Inhibition %=T–C/T×100, where T and C are represented as the diameter of microbial growth of the sample plates and the control plate (6 mm), respectively. Error limits ±2.5–5.0% (P ≤ 0.05).

[5] = system: Salmonella enteric serovar typhi; test: Agar disc diffusion, strain C; format: cell-based; settings: for diameter of the clear zone inhibition: control = 6 mm
Description: as §2, §3, §4

[6] = system: Staphylococcus aureus; test: Agar disc diffusion, strain F; format: cell-based; parameters: (inhibition %): concentration or dose not given beside the values; settings: for diameter of the clear zone inhibition: control = 6 mm
Description: as §2, §3, §4

[7] = system: Aspergillus niger; test: Agar disc diffusion, strain H; format: cell-based; parameters: (inhibition %): concentration or dose not given beside the values; settings: for diameter of the clear zone inhibition: control = 6 mm
Description: as §2, §3, §4

Compound	ΔS° [1]	Tm (K) [1] [K]	Tm °C of DNA-compound adduct [1] [°C]	Binding constant Kr at 298 K [1]	ΔH° [1]	ΔTm °C [1] [°C]	ΔG° [1]	% Inhibition hydroxyl radical ([2]; 40 µM) [%]	% Inhibition hydroxyl radical ([2]; 80 µM) [%]	% Inhibition hydroxyl radical ([2]; 120 µM) [%]	% Inhibition hydroxyl radical ([2]; 160 µM) [%]	% Inhibition hydroxyl radical ([2]; 200 µM) [%]	% Inhibition hydroxyl radical ([2]; 240 µM) [%]	% Inhibition nitric oxide ([3]; 40 µM) [%]	% Inhibition nitric oxide ([3]; 80 µM) [%]	% Inhibition nitric oxide ([3]; 120 µM) [%]	% Inhibition nitric oxide ([3]; 160 µM) [%]	% Inhibition nitric oxide ([3]; 200 µM) [%]	% Inhibition nitric oxide ([3]; 240 µM) [%]	(inhibition %) [4] [%]	further results
Oc1ccccc1N=Cc1ccc(N2CCOCC2)cc1 [(HL), 2-(4-morpholinobenzylideneamino)phenol]	–13.7851 cal mol^–1	347	74	1.5169 × 10^4 M^–1	–9.8083 kcal mol^–1	6	–5.0249 kcal mol^–1	07.26	14.43	25.52	33.86	40.73	50.68	11.42	18.26	24.28	33.21	40.53	51.62	33	diameter of the clear zone inhibition [4]: 09 mm; (inhibition %) [5]: 45%; diameter of the clear zone inhibition [5]: 11 mm; (inhibition %) [6]: 33%; diameter of the clear zone inhibition [6]: 09 mm; (inhibition %) [7]: 40%; diameter of the clear zone inhibition [7]: 10 mm
[Cu+2].[O-]c1ccccc1N=Cc1ccc(N2CCOCC2)cc1.[O-]c1ccccc1N=Cc1ccc(N2CCOCC2)cc1.c1ccc(-c2ccccn2)nc1 [(1a), [Cu(L)2(bpy)]]	–6.9577 cal mol^–1	353	80	1.9000 × 10^4 M^–1	–7.9071 kcal mol^–1	12	–5.4511 kcal mol^–1	09.16	18.23	32.22	40.12	51.14	61.10	17.07	24.95	35.06	42.14	51.35	65.47	54	IC50 [2]: 200 µM; IC50 [3]: 200 µM; diameter of the clear zone inhibition [4]: 13 mm; (inhibition %) [5]: 50%; diameter of the clear zone inhibition [5]: 12 mm; (inhibition %) [6]: 50%; diameter of the clear zone inhibition [6]: 12 mm; (inhibition %) [7]: 45%; diameter of the clear zone inhibition [7]: 11 mm
[O-]c1ccccc1N=Cc1ccc(N2CCOCC2)cc1.[O-]c1ccccc1N=Cc1ccc(N2CCOCC2)cc1.[Zn+2].c1ccc(-c2ccccn2)nc1 [(2a), [Zn(L)2(bpy)]]	–8.4501 cal mol^–1	351	78	1.8287 × 10^4 M^–1	–8.3292 kcal mol^–1	10	–5.3632 kcal mol^–1	08.25	16.86	25.78	34.66	45.78	56.14	14.37	21.59	28.87	37.69	44.73	58.43	50	diameter of the clear zone inhibition [4]: 12 mm; (inhibition %) [5]: 33%; diameter of the clear zone inhibition [5]: 09 mm; (inhibition %) [6]: 45%; diameter of the clear zone inhibition [6]: 11 mm; (inhibition %) [7]: 33%; diameter of the clear zone inhibition [7]: 09 mm
